# Measured values taken from US20210363591A1, “MAPK1 MUTATIONS AND DRUG SENSITIVITY” (The Chinese University of Hong Kong, priority 2020, published 2021).
# Columns and labels:
# FaDu-MAPK1 WT xenografts = assay: Erlotinib response of isogenic FaDu tumor xenografts expressing MAPK1-WT in nude mice
# Source text: (§1) FaDu cells expressing MAPK1 WT, MAPK1 p.D321N and MAPK1 p.R135K respectively were inoculated into nude mice subcutaneously (8×10^5 cells per inoculation). Mice with tumor expressing respective MAPK1 WT/mutations were randomized into erlotinib (erlotinib dissolved in 10% 2-Hydroxypropyl-beta-cyclodextrin (HP-j-CD) or vehicle (10% HP-β-CD) treatment groups (N=8 tumors per group). Treatment started when tumors were palpable and reached the size ˜3×3-4×4 mm^2. Erlotinib or the vehicle control were administered by oral gavage (50 mg/kg erlotinib or the corresponding vehicle amount) for 5 consecutive days as indicated by the arrows on the X-axis. FIG. 2B: IHC staining showing membranous p-EGFR expression of these xenografts post erlotinib/vehicle treatments (N>3 per group). […] FIG. 2C: IHC staining showing corresponding pan-cytokeratin expression in these tumors post erlotinib/vehicle treatment (N>3 per group).
# The VECTASTAIN Elite ABC Universal PLUS Kit Peroxidase (Horse Anti-Mouse/Rabbit IgG) (Cat: PKK-8200) was used for IHC. […]
# Isogenic FaDu cells were infected with MAPK1-WT and MAPK1 mutants by retrovirus and injected into nude mice subcutaneously (8×10^5 cell per mouse, age of 4-5 weeks). […] Tumor volume was monitored and calculated by the equation: length×width^2/2 repeatedly for 5 consecutive days as indicated by the arrows on the X-axis of FIG. 2(a). […]
# [1] = test system: MAPK1p.D321N mutant tumors (FaDu xenografts); assay: Erlotinib response of isogenic FaDu tumor xenografts expressing MAPK1 p.D321N in nude mice
# Source text: as §1
# (§2) The VECTASTAIN Elite ABC Universal PLUS Kit Peroxidase (Horse Anti-Mouse/Rabbit IgG) (Cat: PKK-8200) was used for IHC. Cytokeratin mouse antibody (DAKO, Cat: M3515, 1:500) and Anti-EGFR (phosphor Y1173) antibody [E124] (Abcam, Cat: ab32578, 1:100) were used as primary antibodies.
# (§3) Isogenic FaDu cells were infected with MAPK1-WT and MAPK1 mutants by retrovirus and injected into nude mice subcutaneously (8×10^5 cell per mouse, age of 4-5 weeks). Mice injected with respective infected FaDu cells were randomized into Erlotinib treatment group or Vehicle group (2 tumors born by each mice, 4 mice per group). Treatment started at day 6 after injection with 6 dose per week until day 15. Erlotinib (dissolved in 10% HP-j-CD) or vehicle control were administered orally at a dose of 50 mg/kg. Tumor volume was monitored and calculated by the equation: length×width^2/2 repeatedly for 5 consecutive days as indicated by the arrows on the X-axis of FIG. 2(a). The mice were sacrifice at the end-point of the experiment.
# [2] = test system: MAPK1p.R135K mutant xenografts (FaDu); assay: Erlotinib response of isogenic FaDu tumor xenografts expressing MAPK1 p.R135K in nude mice
# Source text: as §1, §2, §3
smiles,measurement,setting,value
C#Cc1cccc(Nc2ncnc3cc(OCCOC)c(OCCOC)cc23)c1 [erlotinib],change in tumor size vs. vehicle control,"FaDu-MAPK1 WT xenografts; erlotinib 50 mg/kg oral gavage, P=0.4080",did not result in any change in tumor size
same,change in membranous p-EGFR signal in the tumors (IHC),"FaDu-MAPK1 WT xenografts; erlotinib 50 mg/kg oral, vs. vehicle control",did not result in any change
same,tumor-negative (cytokeratin-negative) areas (IHC),[1]; MAPK1p.D321N FaDu xenografts post erlotinib 50 mg/kg oral,concomitant increases in tumor-negative areas
same,membranous p-EGFR signals remaining in the tumors (IHC),"[1]; MAPK1p.D321N FaDu xenografts post erlotinib 50 mg/kg oral, untreated mutants 80-90% positive cells",less than 20%
same,reduction in tumor volume vs. vehicle treatment,"[1]; MAPK1p.D321N FaDu xenografts, erlotinib 50 mg/kg oral gavage, P=0.0037",60.3%
same,tumor-negative (cytokeratin-negative) areas (IHC),[2]; MAPK1p.R135K FaDu xenografts post erlotinib 50 mg/kg oral,noticeable increases in tumor-negative areas
same,percent tumor cells bearing membranous p-EGFR staining (IHC),"[2]; MAPK1p.R135K FaDu xenografts post erlotinib 50 mg/kg oral, 90% in vehicle treated tumors",50%
same,tumor size reduction vs. vehicle treatment,"[2]; MAPK1p.R135K FaDu xenografts, erlotinib 50 mg/kg oral gavage, trend, P=0.0646",28.0%
